Tests used:
[1] = Active ingredient assay and recovery on storage (Table 2); assay type: physicochemical
[2] = Active ingredient assay on storage, SCB239-12 (Table 3); assay type: physicochemical

COc1nn(C(=O)[N-]S(=O)(=O)c2ccccc2OC(F)(F)F)c(=O)n1C.[Na+] [Flucarbazone, Flucarbazone Sodium]
Assay (% w/w) ([1]; 1 month storage, 0° C.): 1.89 % w/w | Assay (% w/w) ([1]; 1 month storage, 40° C.): 1.90 % w/w | Assay (% w/w) ([1]; 1 month storage, T/C): 1.90 % w/w | Assay (% w/w) ([1]; 1 month storage, −10° C.): 1.90 % w/w | Assay (% w/w) ([1]; 2 month storage, 0° C.): 1.93 % w/w | Assay (% w/w) ([1]; 2 month storage, 40° C.): 1.91 % w/w | Assay (% w/w) ([1]; 2 month storage, T/C): 1.93 % w/w | Assay (% w/w) ([1]; 2 month storage, −10° C.): 1.93 % w/w | Assay (% w/w) ([1]; 2 wks, 54° C.): 1.90 % w/w | Assay (% w/w) ([1]; 3 month storage, 0° C.): 1.98 % w/w | Assay (% w/w) ([1]; 3 month storage, 25° C.): 1.99 % w/w | Assay (% w/w) ([1]; 3 month storage, 40° C.): 1.94 % w/w | Assay (% w/w) ([1]; 3 month storage, T/C): 1.98 % w/w | Assay (% w/w) ([1]; 3 month storage, −10° C.): 1.99 % w/w | Assay (% w/w) ([1]; 6 month storage, 25° C.): 1.92 % w/w | Assay (% w/w) ([1]; 9 month storage, 25° C.): 1.92 % w/w | Assay (% w/w) ([1]; 12 month storage, 25° C.): 1.92 % w/w | Assay (% w/w) ([1]; F/T Sample): 1.92 % w/w | Assay (% w/w) ([1]; initial): 1.91 % w/w | Assay (% w/w) ([2]; 1 month storage, 0° C.): 1.81 % w/w | Recovery of active ingredient (% of initial assay) ([2]; 1 month storage, 0° C.): 99.67 % w/w | Assay (% w/w) ([2]; 1 month storage, 40° C.): 1.85 % w/w | Recovery of active ingredient (% of initial assay) ([2]; 1 month storage, 40° C.): 101.98 % w/w | Assay (% w/w) ([2]; 1 month storage, T/C): 1.83 % w/w | Recovery of active ingredient (% of initial assay) ([2]; 1 month storage, T/C): 101.13 % w/w | Assay (% w/w) ([2]; 2 month storage, 0° C.): ′1.81 % w/w | Recovery of active ingredient (% of initial assay) ([2]; 2 month storage, 0° C.): 99.76 % w/w | Assay (% w/w) ([2]; 2 month storage, 40° C.): 1.80 % w/w | Recovery of active ingredient (% of initial assay) ([2]; 2 month storage, 40° C.): 99.54 % w/w | Assay (% w/w) ([2]; 2 month storage, T/C): 1.82 % w/w | Recovery of active ingredient (% of initial assay) ([2]; 2 month storage, T/C): 100.35 % w/w | Assay (% w/w) ([2]; 2 wks, 54° C.): 1.68 % w/w | Recovery of active ingredient (% of initial assay) ([2]; 2 wks, 54° C.): 92.84 % w/w | Assay (% w/w) ([2]; 3 month storage, 0° C.): 1.80 % w/w | Recovery of active ingredient (% of initial assay) ([2]; 3 month storage, 0° C.): 99.13 % w/w | Assay (% w/w) ([2]; 3 month storage, 25° C.): 1.79 % w/w | Recovery of active ingredient (% of initial assay) ([2]; 3 month storage, 25° C.): 98.51 % w/w | Assay (% w/w) ([2]; 3 month storage, 40° C.): 1.72 % w/w | Recovery of active ingredient (% of initial assay) ([2]; 3 month storage, 40° C.): 95.13 % w/w | Assay (% w/w) ([2]; 3 month storage, −10° C.): 1.78 % w/w | Recovery of active ingredient (% of initial assay) ([2]; 3 month storage, −10° C.): 98.44 % w/w | Assay (% w/w) ([2]; F/T sample): 1.80 % w/w | Recovery of active ingredient (% of initial assay) ([2]; F/T sample): 99.26 % w/w | Assay (% w/w) ([2]; Initial): 1.81 % w/w

CCCCCCCC(=O)Oc1c(Br)cc(C#N)cc1Br [Bromoxynil, Bromoxynil Octanoate]
Assay (% w/w) ([1]; 1 month storage, 0° C.): 31.04 % w/w | Assay (% w/w) ([1]; 1 month storage, 40° C.): 31.46 % w/w | Assay (% w/w) ([1]; 1 month storage, T/C): 31.27 % w/w | Assay (% w/w) ([1]; 1 month storage, −10° C.): 31.44 % w/w | Assay (% w/w) ([1]; 2 month storage, 0° C.): 31.30 % w/w | Assay (% w/w) ([1]; 2 month storage, 40° C.): 30.78 % w/w | Assay (% w/w) ([1]; 2 month storage, T/C): 30.99 % w/w | Assay (% w/w) ([1]; 2 month storage, −10° C.): 31.34 % w/w | Assay (% w/w) ([1]; 2 wks, 54° C.): 31.02 % w/w | Assay (% w/w) ([1]; 3 month storage, 0° C.): 32.81 % w/w | Assay (% w/w) ([1]; 3 month storage, 25° C.): 32.57 % w/w | Assay (% w/w) ([1]; 3 month storage, 40° C.): 32.17 % w/w | Assay (% w/w) ([1]; 3 month storage, T/C): 32.54 % w/w | Assay (% w/w) ([1]; 3 month storage, −10° C.): 33.06 % w/w | Assay (% w/w) ([1]; 6 month storage, 25° C.): 31.38 % w/w | Assay (% w/w) ([1]; 9 month storage, 25° C.): 32.11 % w/w | Assay (% w/w) ([1]; 12 month storage, 25° C.): 31.19 % w/w | Assay (% w/w) ([1]; F/T Sample): 31.42 % w/w | Assay (% w/w) ([1]; initial): 31.32 % w/w | Assay (% w/w) ([2]; 1 month storage, 0° C.): 31.08 % w/w | Recovery of active ingredient (% of initial assay) ([2]; 1 month storage, 0° C.): 99.56 % w/w | Assay (% w/w) ([2]; 1 month storage, 40° C.): 30.65 % w/w | Recovery of active ingredient (% of initial assay) ([2]; 1 month storage, 40° C.): 98.17 % w/w | Assay (% w/w) ([2]; 1 month storage, T/C): 30.89 % w/w | Recovery of active ingredient (% of initial assay) ([2]; 1 month storage, T/C): 98.95 % w/w | Assay (% w/w) ([2]; 2 month storage, 0° C.): 30.30 % w/w | Recovery of active ingredient (% of initial assay) ([2]; 2 month storage, 0° C.): 97.06 % w/w | Assay (% w/w) ([2]; 2 month storage, 40° C.): 29.43 % w/w | Recovery of active ingredient (% of initial assay) ([2]; 2 month storage, 40° C.): 94.28 % w/w | Assay (% w/w) ([2]; 2 month storage, T/C): 29.88 % w/w | Recovery of active ingredient (% of initial assay) ([2]; 2 month storage, T/C): 95.73 % w/w | Assay (% w/w) ([2]; 2 wks, 54° C.): 30.55 % w/w | Recovery of active ingredient (% of initial assay) ([2]; 2 wks, 54° C.): 97.86 % w/w | Assay (% w/w) ([2]; 3 month storage, 0° C.): 30.06 % w/w | Recovery of active ingredient (% of initial assay) ([2]; 3 month storage, 0° C.): 96.31 % w/w | Assay (% w/w) ([2]; 3 month storage, 25° C.): 30.03 % w/w | Recovery of active ingredient (% of initial assay) ([2]; 3 month storage, 25° C.): 96.21 % w/w | Assay (% w/w) ([2]; 3 month storage, 40° C.): 29.37 % w/w | Recovery of active ingredient (% of initial assay) ([2]; 3 month storage, 40° C.): 94.07 % w/w | Assay (% w/w) ([2]; 3 month storage, −10° C.): 30.49 % w/w | Recovery of active ingredient (% of initial assay) ([2]; 3 month storage, −10° C.): 97.68 % w/w | Assay (% w/w) ([2]; F/T sample): 31.13 % w/w | Recovery of active ingredient (% of initial assay) ([2]; F/T sample): 99.73 % w/w | Assay (% w/w) ([2]; Initial): 31.22 % w/w
